Test results: patent US6403090B1, “Peptides which mimic candida carbohydrate epitopes and their use in a vaccine” (The Research and Development Institute Inc., priority 1994, dated 2002)
Where a SMILES comes first, the peptide text is derived from it. [ ]: non-standard residue; d: D form. Nle = CCCC[C@H](N)C(=O)O

Assays:
g3p in COS-1 cells = experiment: g3p expression in transfected COS-1 cells by IFA; assay type: cell-based; conditions: COS-1 cells treated with protease inhibitor
Method: To achieve greater levels of expression, the plasmids were transfected into COS-1 cells, which are capable of replicating the plasmids and generating exceptional amounts of the encoded proteins. […] Several different transfection methods and variations were tested to increase the proportion of cells that would express detectable g3p. […] Therefore, g3p is likely being broken down rapidly by the mammalian cells.
This possibility was further tested by treating the COS-1 cells with a protease inhibitor (ALLN) that can inhibit proteases in the endoplasmic reticulum of living cells. […] The antigen was detected in the Golgi apparatus as well as in the endoplasmic reticulum. Less of the truncated version of g3p (without a membrane anchor) was detectable; whether any of it is secreted from the expressing cells under these conditions remains to be determined.

[1] = system: binding of C. albicans hydrophilic yeast cells to splenic marginal zone macrophages; experiment: Ex vivo adherence assay on mouse splenic tissue; conditions: purified epitope of mAb 10G
Source text: Tissue adherence characteristics of C. albicans and adhesin isolation. By use of an ex vivo adherence assay, the adherence characteristics of hydrophilic and hydrophobic yeast cells to mouse splenic and lymph node tissue was examined (Cutler, J. E., et al., 1990, Characteristics of Candida albicans adherence to mouse tissues. Infec. Immun. 58:1902-1908); Han, Y., et al. 1993. Binding of C. albicans yeast cells to mouse popliteal lymph node tissue is mediated by macrophages. Infect. Immun. 61:3244-3249; and Hazen, K. C., et al. 1991. Differential adherence between hydrophobic and hydrophilic yeast cells of C. albicans. Infect. Immun. 59:907-91212).
C. neoformans strain 602 log and stationary phase cells were removed form the various growth conditions and tested for adherence to splenic tissue in the ex vivo assay. […]
However, 2ME extract will not inhibit yeast adherence if the extract is treated with antiserum from vaccinated animals. […] 100 μl of each was overlaid onto splenic cryosections for 15 min at 4° C., the mixtures were decanted, 100 μl of a suspension of yeast cells (1.5×10^7/0.1 ml DMEM) was added to each tissue section for 15 min at 4° C., and yeast cell binding was quantified as previously described (Riesselman, M. H. et al. 1991. Improvements and important considerations of an ex vivo assay to study interactions of C. albicans with splenic tissue., J. Immunol. Methods 1450:153-160). […]

[2] = target: Monoclonal Antibody B6.1 (930610), ATCC Accession No. HB11925
Solubility tests = assay type: physicochemical
Source text: Synthetic peptide inhibits binding of MAb B6.1 to its' carbohydrate epitope. […] We obtained a synthetic 13-mer peptide (Bio-Synthesis, Lewisville, Tex.), YRQFVTGFWGPPC, (SEQ ID NO:7) which was designed to include the PS76 nonapeptide sequence (designated as PS76p) plus the 3 amino acid pIII tether (GPP) and an added cysteine (C) to facilitate peptide coupling to a carrier protein, such as keyhole limpet hemocyanin (KLH). Due to the high number of hydrophobic amino acids in the synthesized PS76p, solubility tests were run to determine conditions for dot blot inhibition studies. The PS76p was soluble in trifluoroacetic acid, dimethylsulfoxide, 20% v/v acetic acid, citrate and acetate buffers below pH 5.4, borate buffer above pH 8.5, but not soluble in deionized water, phosphate buffered saline (PBS), 15% v/v dimethylformamide, chloroform, or methanol.

MAb B6.1 [3] = experiment: Dot blot inhibition of MAb B6.1 by synthetic peptide at pH 8.6; assay type: binding, mouse; conditions: up to 200 μM peptide
Source text: Because pH below 5 or above 8.5 is required to solubilize PS76p, the reactivity of MAb B6.1 at low and high pH was investigated. […] Although MAb B6.1 is functional at these pH conditions, the PS76p may or may not retain proper epitope conformation at this pH and may require tethering to a carrier molecule to enable inhibition studies to be done at pH 7.

C. albicans 2ME extract = experiment: Antibody response of mice immunized with peptide mimotope preparations; assay type: in vivo, BALB/c mice; conditions: for Class of the antibody response against 2ME extract: γ-chain or μ-chain specific secondary antibodies
Method: Administration of peptide intraperitoneally (i.p.) BALB/c mice (4 animals) were immunized i.p. with PS76p (1 mg per dose) mixed into sterile PBS (degassed and nitrogen sparged) with and without RS-700MPL+TDM Ribi Adjuvant (Ribi Immunochem, Hamilton, Mont.). The insolubility of PS76p in PBS, as noted above, produced a particulate inoculum which was sonicated briefly (10 sec, ice cold) to minimize particulate size prior to injection. Animals were boosted with 1 mg PS76p at day 21 and serum samples were obtained on day 28. Sera from all four mice agglutinated hydrophilic C. albicans cells and agglutinated 2-ME extract-latex beads. The anti-Candida response appeared somewhat stronger in the animals receiving peptide with adjuvant.
Reactivity of the anti-PS76p sera from the mice was also tested in dot blot assays against 2-ME extract (1 μg/dot). Immune sera were diluted 1:10 in 5% BLOTTO-phage buffer, incubated 12-16 h with preblocked dot blots, washed and incubated with peroxidase-conjugated goat anti-mouse Ig (G,M, and A). […] Additional dot blots were incubated in primary antibodies as above and reacted with either γ-chain specific or μ-chain specific secondary antibodies.
Animals were administered booster immunizations of PS76p every two weeks and serum samples obtained 1 week after each. An ELISA assay was utilized to determine any change in titer for the anti-PS76p antiserum samples. Briefly, 2ME extract-coated wells or wells coated with an irrelevant carbohydrate were blocked in 5% BLOTTO/phage buffer and incubated with dilutions of either pre-immune sera or various anti-PS76p antiserum samples. Subsequent steps with the secondary antibody and substrate solution were as described above for ELISA. All of the anti-PS76p serum samples reacted with 2ME extract and recognized the peptide-carrier protein conjugates, but not the irrelevant carbohydrate or the carrier proteins alone. […] Other BALB/C mice (2 animals) were immunized with PS76p plus Ribi adjuvant (1 mg/dose subcutaneous inoculation (s.c.), and reached higher anti-PS76 antibody titers (e.g. 160 by ELISA) after the second boost. ELISA tests performed with class-specific secondary antibody reagents confirm that the response is primarily IgM. […]

MAb B6.1 [4] = experiment: ELISA: peptide-carrier conjugates with MAb B6.1 at physiologic pH; assay type: binding, mouse; conditions: OD 490 nm
Method: (§1) Samples of the final conjugates, PS76p-MBS-KLH (i.e. PS76-KLH) and PS76p-GMBS-OVA (i.e. PS76-OVA) were tested by enzyme linked immunosorbent assay (ELISA) for reactivity with MAb B6.1 at physiologic pH. Microtiter plate wells were coated with the peptide conjugates or the carrier proteins alone, washed (Tris buffered saline with 0.1% Tween-20), and blocked in 5% BLOTTO/phage buffer. Wells were washed and incubated with MAb B6.1, an irrelevant IgM (MAb S10) or block only, washed, and a horseradish peroxidase-conjugated goat anti-mouse Ig (G and M) was added. Wells were washed and an o-phenylenediamine substrate solution was added, incubated 10 min and color development stopped with 10% sulfuric acid, and the plate read at OD=490 nm. […] The PS76-KLH conjugate was utilized in an ELISA-based inhibition assay as follows. Microtiter plate wells were coated with PS76-KLH and blocked as above. MAb B6.1 ([…] in block) was pre-incubated with or without either 50 or 500 μg of acid-hydrolyzed 2ME extract per ml of solution, and then added to the conjugate coated well.

MAb S10 = experiment: ELISA: peptide-carrier conjugates with irrelevant IgM MAb S10; assay type: binding; conditions: physiologic pH
Method: as §1

CCCC[C@@H](C=O)NC(=O)[C@H](CC(C)C)NC(=O)[C@H](CC(C)C)NC(C)=O [ALLN] (Ac-Leu-Leu-[Nle]-aldehyde)
Frequency and amount of g3p detectable by IFA (g3p in COS-1 cells): significant increase

OC[C@H]1O[C@@H](O[C@@H]2[C@H](O[C@@H]3[C@H](O[C@@H]4C(O)O[C@H](CO)[C@@H](O)[C@@H]4O)O[C@H](CO)[C@@H](O)[C@@H]3O)O[C@H](CO)[C@@H](O)[C@@H]2O)[C@@H](O)[C@@H](O)[C@@H]1O (stereo partly drawn) [tetramannose, β-1,2-linked straight-chained tetramannose]
Binding of yeast cells to the splenic marginal zone [1]: blocks binding

M13KBst, the parent vector (parent phage) for the PDPL (from UniProt P69168 19-424)
absorbance (OD490) [2]: 0.021 OD490
absorbance (OD490) (irrelevant IgM MAb S10): 0.032 OD490

YRQFVTGFWGPPC [PS76p, synthetic 13-mer: PS76 nonapeptide plus GPP tether and added cysteine]
Solubility (Solubility tests; deionized water, PBS, 15% v/v dimethylformamide, chloroform, methanol): not soluble
Solubility (Solubility tests; trifluoroacetic acid, dimethylsulfoxide, 20% v/v acetic acid, citrate and acetate buffers below pH 5.4, borate buffer above pH 8.5): soluble
Inhibition of MAb B6.1 binding to 2-ME extract (MAb B6.1 [3]): negative
ELISA titer against 2ME extract (C. albicans 2ME extract; 1 mg i.p. immunizations, boosters every two weeks): ~40
Agglutination of hydrophilic C. albicans cells and 2-ME extract-latex beads by sera of immunized mice (C. albicans 2ME extract; 1 mg per dose i.p. with and without Ribi adjuvant, boost day 21, serum day 28, all four mice): agglutinated
ELISA anti-PS76 antibody titer (C. albicans 2ME extract; 1 mg/dose s.c. plus Ribi adjuvant, after the second boost): 160
Dot blot reactivity of immune sera to 2-ME extract (C. albicans 2ME extract; sera 1:10, 1 μg/dot, all four immunized mice): showed reactivity
Class of the antibody response against 2ME extract (C. albicans 2ME extract): primarily IgM

B1: PS76-OVA: PS76p conjugated to ovalbumin via GMBS (conjugate)
peptide: YRQFVTGFWGPPC
chain: GSIGAASMEFCFDVFKELKVHHANENIFYCPIAIMSALAMVYLGAKDSTRTQINKVVRFDKLPGFGDSIEAQCGTSVNVHSSLRDILNQITKPNDVYSFSLASRLYAEERYPILPEYLQCVKELYRGGLEPINFQTAADQARELINSWVESQTNGIIRNVLQPSSVDSQTAMVLVNAIVFKGLWEKAFKDEDTQAMPFRVTEQESKPVQMMYQIGLFRVASMASEKMKILELPFASGTMSMLVLLPDEVSGLEQLESIINFEKLTEWTSSNVMEERKIKVYLPRMKMEEKYNLTSVLMAMGITDVFSSSANLSGISSAESLKISQAVHAAHAEINEAGREVVGSAEAGVDAASVSEEFRADHPFLFCIKHIATNAVLFFGRCVSP
Reactivity with MAb B6.1 by ELISA (MAb B6.1 [4]): reacted
Reactivity with MAb S10 by ELISA (MAb S10): not substantially
ELISA titer against 2ME extract (C. albicans 2ME extract; conjugate s.c.): 320
Class of the antibody response against 2ME extract (C. albicans 2ME extract): primarily IgM
